This experiment concerns the target T1, H1299 cell pAxl (Homo sapiens, UniProt P30530).
T1 construct: endogenous in cells; host or cells: H1299
T1 sequence (P30530 26-894): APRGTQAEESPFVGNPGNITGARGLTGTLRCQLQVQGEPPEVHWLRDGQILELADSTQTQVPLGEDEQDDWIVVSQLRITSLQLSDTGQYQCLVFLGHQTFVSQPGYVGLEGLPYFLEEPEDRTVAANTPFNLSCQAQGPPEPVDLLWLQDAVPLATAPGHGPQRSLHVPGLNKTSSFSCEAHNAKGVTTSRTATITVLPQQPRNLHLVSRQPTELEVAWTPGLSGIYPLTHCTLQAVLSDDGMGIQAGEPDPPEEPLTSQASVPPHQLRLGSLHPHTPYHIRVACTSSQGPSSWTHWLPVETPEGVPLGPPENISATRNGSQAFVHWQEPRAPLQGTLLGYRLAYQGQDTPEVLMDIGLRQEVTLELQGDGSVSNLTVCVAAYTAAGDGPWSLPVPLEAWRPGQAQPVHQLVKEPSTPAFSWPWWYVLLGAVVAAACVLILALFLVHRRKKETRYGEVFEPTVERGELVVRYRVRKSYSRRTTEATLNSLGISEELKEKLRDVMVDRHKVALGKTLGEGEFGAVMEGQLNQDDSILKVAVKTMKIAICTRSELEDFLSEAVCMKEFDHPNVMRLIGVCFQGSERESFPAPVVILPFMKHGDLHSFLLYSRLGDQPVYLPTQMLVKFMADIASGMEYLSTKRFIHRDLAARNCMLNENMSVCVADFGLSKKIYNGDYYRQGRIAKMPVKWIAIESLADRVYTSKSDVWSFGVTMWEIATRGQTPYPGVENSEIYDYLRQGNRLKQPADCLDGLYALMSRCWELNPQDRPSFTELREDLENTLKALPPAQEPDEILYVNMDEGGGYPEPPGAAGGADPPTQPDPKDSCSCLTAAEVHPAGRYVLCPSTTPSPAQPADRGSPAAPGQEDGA
Description: Inhibitory activity on cell pAxl (H1299 cells, hGAS6 stimulation, Western Blot). The note with it: hGAS6 200 ng/mL, tested at 1.1, 3.3, 10 and 30 nM, read-out: Inhibitory Activity on Cell pAx1, IC50. Format: cell-based. As to the method:
H1299 is a non-small cell lung cancer cell.
Test samples: the compounds of the present invention, having structures shown above.
Test instruments: protein electrophoresis apparatus (made by Bio Rad), membrane transfer apparatus (made by Bio Rad), exposure apparatus (made by Tanon), and CO2 cell incubator (made by Thermo).
H1299 cells were inoculated into a 6-well plate (containing 10% FBS 1640 medium, 5×10^5 cells per well) and adherently cultivated at 37° C. and 5% CO2 for 18 h. The cells were starved overnight, and compounds with different concentrations were added. The compounds had final concentrations of 1.1 nM, 3.3 nM, 10 nM and 30 nM, with DMSO having a final concentration of 1‰. There was a medium containing 10‰ DMSO in the negative control well. The cells were incubated at 37° C. and 5% CO2 for 60 min, and then hGAS6 (R&D, final concentration: 200 ng/mL) was added to each well. The cells were further incubated for 60 min, and then the total protein of the cells was extracted for Western Blot experiment. IC50 values were calculated with GraphPad 5.0 software, and the inhibitory activities of the compounds on cell pAxl were detected.
On the technique in general: Immunoblotting shows a protein as a band on a membrane.

The IC50 is the point on the concentration scale where inhibition reaches its midpoint. Take `CC(C)n1cc(-c2ccc(F)cc2)c(=O)c(C(=O)Nc2ccc(Oc3ccnc(N)c3Cl)cn2)n1` [Compound 11, N-(5-((2-amino-3-chloropyridin-4-yl)oxy)pyridin-2-yl)-5-(4-fluorophenyl)-1-isopropyl-4-oxo-1,4-dihydropyridazine-3-carboxamide]: the IC50 is less than 1.1 nM.

As for `CC(C)n1cc(-c2ccc(F)cc2)c(=O)c(C(=O)Nc2ncc(Oc3ccnc(N)c3Cl)cn2)n1` [Compound 12, N-(5-((2-amino-3-chloropyridin-4-yl)oxy)pyrimidin-2-yl)-5-(4-fluorophenyl)-1-isopropyl-4-oxo-1,4-dihydropyridazine-3-carboxamide], the IC50 was 3.3 nM.

Regarding `CC(C)n1cc(-c2ccc(F)cc2)c(=O)c(C(=O)Nc2ccc(Oc3ccnc(N)c3Cl)nc2)n1` [Compound 13, N-(6-((2-amino-3-chloropyridin-4-yl)oxy)pyridin-3-yl)-5-(4-fluorophenyl)-1-isopropyl-4-oxo-1,4-dihydropyridazine-3-carboxamide], the IC50 lay in the range of 1.1 to 3.3 nM.

`Nc1nccc(Oc2ccc(NC(=O)c3nn(C4CC4)cc(-c4ccc(F)cc4)c3=O)nc2)c1Cl` [Compound 17, N-(5-((2-amino-3-chloropyridin-4-yl)oxy)pyridin-2-yl)-1-cyclopropyl-5-(4-fluorophenyl)-4-oxo-1,4-dihydropyridazine-3-carboxamide]: the IC50 is less than 1.1 nM.

For the compound `Nc1nccc(Oc2cnc(NC(=O)c3nn(C4CC4)cc(-c4ccc(F)cc4)c3=O)nc2)c1Cl` [Compound 18, N-(5-((2-amino-3-chloropyridin-4-yl)oxy)pyrimidin-2-yl)-5-(4-fluorophenyl)-1-cyclopropyl-4-oxo-1,4-dihydropyridazine-3-carboxamide], the IC50 worked out at 3.3 nM.

`Nc1nccc(Oc2ccc(NC(=O)c3nn(C4CC4)cc(-c4ccc(F)cc4)c3=O)cn2)c1Cl` [Compound 19, N-(6-((2-amino-3-chloropyridin-4-yl)oxy)pyridin-3-yl)-1-cyclopropyl-5-(4-fluorophenyl)-4-oxo-1,4-dihydropyridazine-3-carboxamide]: the IC50 was 3.3 to 10 nM.

As for `Cn1cc(-c2ccc(F)cc2)c(=O)c(C(=O)Nc2ccc(Oc3ccnc(N)c3Cl)cn2)n1` [Compound 33, N-(5-((2-amino-3-chloropyridin-4-yl)oxy)pyridin-2-yl)-5-(4-fluorophenyl)-1-methyl-4-oxo-1,4-dihydropyridazine-3-carboxamide], the IC50 was 3.3 to 10 nM.

For `C=CCn1cc(-c2ccc(F)cc2)c(=O)c(C(=O)Nc2ccc(Oc3ccnc(N)c3Cl)cn2)n1` [Compound 35, 1-allyl-N-(5-((2-amino-3-chloropyridin-4-yl)oxy)pyridin-2-yl)-5-(4-fluorophenyl)-4-oxo-1,4-dihydropyridazine-3-carboxamide], the IC50 is less than 1.1 nM.

Take `C=CCn1cc(-c2ccc(F)cc2)c(=O)c(C(=O)Nc2ncc(Oc3ccnc(N)c3Cl)cn2)n1` [Compound 37]: the IC50 was found to be 1.1 nM.

For `C=CCn1cc(-c2ccc(F)cc2)c(=O)c(C(=O)Nc2ccc(Oc3ccnc(N)c3Cl)nc2)n1` [Compound 39, 1-allyl-N-(6-((2-amino-3-chloropyridin-4-yl)oxy)pyridin-3-yl)-5-(4-fluorophenyl)-4-oxo-1,4-dihydropyridazine-3-carboxamide], the IC50 was 1.1 to 3.3 nM.

The record behind these values is patent US20220298146A1, “HETEROCYCLIC DERIVATIVE AND USE THEREOF” (Transthera Sciences (Nanjing), Inc., priority 2019, published 2022).
